Results from patent publication US20120295920A1, “5-AMINO-4-HYDROXYPENTOYL AMIDES” (priority 2009, published 2012).
Where two headings read alike, the source gives them in different places.

Key:
[1] = system: HIV-1 wild-type strain; assay: General antiviral assay, cell-based virus replication in MT4-LTR-EGFP cells, wild-type strain
Method: (§1) MT4-LTR-EGFP cells were obtained by transfecting MT4 cells with a selectable construct encompassing the sequences coding for the HIV long terminal repeat (LTR) as a promoter for the expression of enhanced green fluorescent protein (EGFP) and subsequent selection of permanently transfected cells.
(§2) The antiviral activity on different HIV-1 strains, was determined in a cell-based virus replication assay. Here MT4-LTR-EGFP cells (150,000 cells/ml) are infected (multiplicity of infection [MOI] of 0.0025) in the presence or absence of different inhibitor concentrations. Two methodologies for read-out were used, either quantification of GFP-fluoresence on day 3 post-infection, or quantification of cell-viability using rezazurin (as described by Fields, R. D., and M. V. Lancaster (1993) Am. Biotechnol. Lab. 11:48-50) on day 4 post infection.

[2] = system: HIV-1 Strain A (M046I, I084V); assay: microbe, parasite or virus in culture; format: cell-based; conditions: clinical isolate Strain A; read-out: A EC50
Method: as §1, §2
(§3) In the following Table, Strains A, B, and C are clinical isolates that include the following protease inhibitor resistance mutations in the protease domain (background mutations are not mentioned).

[3] = system: HIV-1 Strain B (M046I, I050V); assay: microbe, parasite or virus in culture; format: cell-based; conditions: clinical isolate Strain B; read-out: B EC50
Method: as §1, §2, §3

[4] = system: HIV-1 Strain C (G048G/V, V082A); assay: microbe, parasite or virus in culture; format: cell-based; conditions: clinical isolate Strain C; read-out: C EC50
Method: as §1, §2, §3

[5] = system: mock-infected MT4 cells; assay: General toxicity assay on mock-infected MT4 cells with CMV-EGFP reporter (CC50); format: cell-based
[6] = system: HIV-1 IIIB; assay: 50% HS-Rezazurin: antiviral assay in the presence of 50% human serum, MT-4 cells, resazurin cell viability; format: cell-based
Method: For the Antiviral assay in the presence of 50% human serum MT-4 cells were infected with HIV-1 IIIB at a MOI of 0.001 to 0.01 CCID50/cell in RPMI1640 medium. Following 1 h of incubation, cells were washed and plated into a 96-well plate containing serial dilutions of compound in the presence of 10% fetal calf serum (FCS), or 50% human serum. After 4 days incubation, the EC50 in the presence of 50% human serum was determined by a cell viability assay using resazurin.
The last column lists the results for the wild-type strain IIB in the presence of 50% human serum MT-4 cells.

[7] = wild-type strain IIIB, MT4-LTR-EGFP cells
[8] = MT4LTR cells, read-out: TOX-MT4LTR (CC50)
[9] = mock-infected MT4 cells with CMV-EGFP reporter, read-out: TOX-MT4CMV (CC50)

Compound | EC50 [1, 7] [nM] | EC50 [2] [nM] | EC50 [3] [nM] | EC50 [4] [nM] | CC50 [5, 8] [nM] | EC50 [6] [nM] | CC50 [5, 9] [nM] | EC50 ([1]; read-out: HIV-IIIB EC50) [nM]
COC(=O)NC(C(=O)NC(Cc1ccc(-c2ccc(OC)nc2)cc1)C(O)CC(Cc1ccccc1F)C(=O)NC1c2cc(F)cc(C)c2OCC1O)C(C)(C)C (stereo not drawn) [Compound 102] | 2.3 | 5.4 | 3.3 | 1.5 | > 32000 | 6.8 |  | 
COCCOC(=O)N[C@H](C(=O)N[C@@H](Cc1ccc(-c2ccc(OC)nc2)cc1)[C@@H](O)C[C@@H](Cc1ccccc1Cl)C(=O)N[C@H]1c2cc(F)ccc2OC[C@H]1O)C(C)(C)C [Compound 57] | 1.9 |  | 0.9 | 0.8 | > 32000 | 8.7 |  | 
COC(=O)NC(C(=O)NC(Cc1ccc(-c2ccc(N(C)C)nc2)cc1)C(O)CC(Cc1cccc(OC)c1)C(=O)NC1c2ccccc2OCC1O)C(C)(C)C (stereo not drawn) [Compound 15] | 2 | 2.1 | 1.2 | 1.3 |  | 8.7 | > 32000 | 
COC(=O)N[C@H](C(=O)N[C@@H](Cc1ccc(-c2ccc(OC)nc2)cc1)[C@@H](O)C[C@@H](Cc1ccccc1Cl)C(=O)N[C@H]1c2cc(Cl)ccc2OC[C@H]1O)C(C)(C)C [Compound 58] | 3.9 | 6 | 2.5 | 1.8 | > 32000 | 13.3 |  | 
COC(=O)NC(C(=O)NC(Cc1ccc(-c2cnc(C)s2)cc1)C(O)CC(Cc1ccccc1F)C(=O)NC1c2cc(Cl)ccc2OCC1O)C(C)(C)C (stereo not drawn) [Compound 11] | 4.2 | 3.9 | 3.5 | 2.1 |  | 22.4 | > 32000 | 
COC(=O)NC(C(=O)NC(Cc1ccc(-c2ccc(OC)nc2)cc1)C(O)CC(Cc1ccccc1F)C(=O)NC1c2ccccc2OCC1O)C(C)(C)C (stereo not drawn) [Compound 16] | 2.5 | 2 | 1.3 | 1.1 |  | 6.6 | > 32000 | 
COC(=O)N[C@H](C(=O)N[C@@H](Cc1ccc(-c2cnc(C3CC3)s2)cc1)[C@@H](O)C[C@@H](Cc1ccccc1F)C(=O)N[C@H]1c2cc(Cl)ccc2OC[C@H]1O)C(C)(C)C [Compound 28] | 3.2 | 3.1 | 2.1 | 1.4 |  | 22.5 | > 32000 | 
COC(=O)N[C@H](C(=O)N[C@@H](Cc1ccc(-c2ccc(OC)nc2)cc1)[C@@H](O)C[C@@H](Cc1ccccc1Cl)C(=O)N[C@H]1c2cc(F)ccc2OC[C@H]1O)C(C)(C)C [Compound 67] | 2.9 | 2.1 | 1.2 | 1 | > 32000 | 5.3 | > 32000 | 
COc1ccc(-c2ccc(C[C@H](NC(=O)O[C@H]3CO[C@H]4OCC[C@H]43)[C@@H](O)C[C@@H](Cc3ccccc3F)C(=O)N[C@H]3[C@H](C)CCC[C@H]3O)cc2)cn1 [Compound 82] | 1.8 | 1.1 | 0.8 | 0.7 | > 27000 | 5.1 |  | 
COC(=O)N[C@H](C(=O)N[C@@H](Cc1ccc(-c2ccc(N(C)C)nc2)cc1)[C@@H](O)C[C@@H](Cc1ccccc1F)C(=O)N[C@H]1c2cccc(F)c2OC[C@H]1O)C(C)(C)C [Compound 51] | 3 | 2.3 | 1.5 | 1.3 | > 32000 | 7 |  | 
COC(=O)N[C@H](C(=O)N[C@@H](Cc1ccc(-c2cnc(N(C)C)nc2)cc1)[C@@H](O)C[C@@H](Cc1ccccc1F)C(=O)N[C@H]1c2cc(Cl)ccc2OC[C@H]1O)C(C)(C)C [Compound 43] | 2 | 1.7 | 1 | 1.1 | > 32000 | 10.6 |  | 
Cc1cccc(C)c1OCC(=O)N[C@@H](Cc1ccccc1)[C@@H](O)C[C@H](Cc1ccccc1)NC(=O)[C@H](C(C)C)N1CCCNC1=O [LPV] | 13 | 110 | 320 | 31 | > 32000 | 61 | 20000 | 
CN(C)c1ccc(-c2ccc(CC(NC(=O)C(NC(=O)CN3CCCC3)C(C)(C)C)C(O)CC(Cc3cccc(Cl)c3)C(=O)NC3c4cc(F)ccc4OCC3O)cc2)cn1 (stereo not drawn) [Compound 9] | 8.8 |  | 6.6 | 3.7 |  | 31.7 | > 27000 | 
COc1ccc(-c2ccc(C[C@H](NC(=O)O[C@H]3CO[C@H]4OCC[C@H]43)[C@@H](O)C[C@@H](Cc3ccccc3F)C(=O)N[C@H]3c4cc(F)ccc4OC[C@H]3O)cc2)cn1 [Compound 80] | 2.4 | 1.5 | 1.1 | 0.8 | > 32000 | 10.9 |  | 
COc1ccc(-c2ccc(CC(NC(=O)C(NC(=O)CN3CCCC3)C(C)(C)C)C(O)CC(Cc3ccccc3F)C(=O)NC3C(C)CCCC3O)cc2)cn1 (stereo not drawn) [Compound 97] | 5.6 | 4.7 | 2.8 | 2 | > 32000 | 12.7 |  | 
CCOc1ccc(-c2ccc(C[C@H](NC(=O)[C@@H](NC(=O)OC)C(C)(C)C)[C@@H](O)C[C@@H](Cc3ccccc3F)C(=O)N[C@H]3c4cc(Cl)ccc4OC[C@H]3O)cc2)cn1 [Compound 44] | 3.2 |  | 2.2 | 2 | > 32000 | 13.7 |  | 
COC(=O)N[C@H](C(=O)N[C@@H](Cc1ccc(-c2cncc(OC)n2)cc1)[C@@H](O)C[C@@H](Cc1ccccc1F)C(=O)N[C@H]1c2cc(Cl)ccc2OC[C@H]1O)C(C)(C)C [Compound 24] | 3.3 |  | 1.9 | 1.7 |  | 16.1 | > 32000 | 
COC(=O)N[C@H](C(=O)N[C@@H](Cc1ccc(-c2ccc(OC)nc2)cc1)[C@@H](O)C[C@@H](Cc1ccccc1F)C(=O)N[C@H]1c2cc(F)ccc2OC[C@H]1O)C(C)(C)C [Compound 59] | 1.2 | 0.9 | 0.6 |  | > 32000 | 5.8 |  | 
CNC(=O)[C@@H](NC(=O)[C@H](Cc1ccccc1F)C[C@H](O)[C@H](Cc1ccc(-c2ccc(N(C)C)nc2)cc1)NC(=O)O[C@H]1CO[C@H]2OCC[C@H]21)C(C)(C)C [Compound 69] |  |  | 7 | 5.7 |  | 26.6 | > 32000 | 11.6
COC(=O)N[C@H](C(=O)N[C@@H](Cc1ccc(-c2ccc(N(C)C)nc2)cc1)[C@@H](O)C[C@@H](Cc1ccccc1F)C(=O)N[C@H]1[C@H](C)CCC[C@H]1O)C(C)(C)C [Compound 89] | 1.1 |  |  | 0.8 | > 32000 | 4.9 | > 32000 | 
COC(=O)NC(C(=O)NC(Cc1ccc(-c2csc(N(C)C)n2)cc1)C(O)CC(Cc1ccccc1F)C(=O)NC1c2cc(Cl)ccc2OCC1O)C(C)(C)C (stereo not drawn) [Compound 20] | 3.1 | 7.4 |  | 2.7 |  | 11.2 | 6000 | 
